For 10 molecules, IC50 results are on record in ChEMBL document CHEMBL4190351, “Synthesis and biological evaluation of novel 6,11-dihydro-5H-benzo[e]pyrimido- [5,4-b][1,4]diazepine derivatives as potential c-Met inhibitors” (Eur J Med Chem, 2017).

What is called IC50 is the concentration at which inhibition is half-maximal. Low values mean greater potency, high ones weaker potency.

The target of assay [1] is Hepatocyte growth factor receptor (Homo sapiens, UniProt P08581). Description: Inhibition of cMet (unknown origin) using poly(Glu, Tyr)4:1 substrate and ATP incubated fro 60 mins by ELISA. For orientation: ELISA stands for enzyme-linked immunosorbent assay.
Assay [2] deals with HepG2. Description: Cytotoxicity in human HepG2 cells incubated for 72 hrs by sulforhodamine B assay. The following applies: HepG2, 72 h. A general note: Sulforhodamine B stains cellular protein and so reports cell mass.
Assay [3] concerns CAKI-1. Description: Cytotoxicity in human Caki1 cells incubated for 72 hrs by sulforhodamine B assay. The following applies: CAKI-1, 72 h.
Assay [4] has as its system PC-3. Description: Cytotoxicity in human PC3 cells incubated for 72 hrs by sulforhodamine B assay. The following applies: PC-3, 72 h.
The subject of assay [5] is PANC-1. Description: Cytotoxicity in human PANC1 cells incubated for 72 hrs by sulforhodamine B assay. The following applies: PANC-1, 72 h.

Hepatocyte growth factor receptor, sequence (P08581 whole entry): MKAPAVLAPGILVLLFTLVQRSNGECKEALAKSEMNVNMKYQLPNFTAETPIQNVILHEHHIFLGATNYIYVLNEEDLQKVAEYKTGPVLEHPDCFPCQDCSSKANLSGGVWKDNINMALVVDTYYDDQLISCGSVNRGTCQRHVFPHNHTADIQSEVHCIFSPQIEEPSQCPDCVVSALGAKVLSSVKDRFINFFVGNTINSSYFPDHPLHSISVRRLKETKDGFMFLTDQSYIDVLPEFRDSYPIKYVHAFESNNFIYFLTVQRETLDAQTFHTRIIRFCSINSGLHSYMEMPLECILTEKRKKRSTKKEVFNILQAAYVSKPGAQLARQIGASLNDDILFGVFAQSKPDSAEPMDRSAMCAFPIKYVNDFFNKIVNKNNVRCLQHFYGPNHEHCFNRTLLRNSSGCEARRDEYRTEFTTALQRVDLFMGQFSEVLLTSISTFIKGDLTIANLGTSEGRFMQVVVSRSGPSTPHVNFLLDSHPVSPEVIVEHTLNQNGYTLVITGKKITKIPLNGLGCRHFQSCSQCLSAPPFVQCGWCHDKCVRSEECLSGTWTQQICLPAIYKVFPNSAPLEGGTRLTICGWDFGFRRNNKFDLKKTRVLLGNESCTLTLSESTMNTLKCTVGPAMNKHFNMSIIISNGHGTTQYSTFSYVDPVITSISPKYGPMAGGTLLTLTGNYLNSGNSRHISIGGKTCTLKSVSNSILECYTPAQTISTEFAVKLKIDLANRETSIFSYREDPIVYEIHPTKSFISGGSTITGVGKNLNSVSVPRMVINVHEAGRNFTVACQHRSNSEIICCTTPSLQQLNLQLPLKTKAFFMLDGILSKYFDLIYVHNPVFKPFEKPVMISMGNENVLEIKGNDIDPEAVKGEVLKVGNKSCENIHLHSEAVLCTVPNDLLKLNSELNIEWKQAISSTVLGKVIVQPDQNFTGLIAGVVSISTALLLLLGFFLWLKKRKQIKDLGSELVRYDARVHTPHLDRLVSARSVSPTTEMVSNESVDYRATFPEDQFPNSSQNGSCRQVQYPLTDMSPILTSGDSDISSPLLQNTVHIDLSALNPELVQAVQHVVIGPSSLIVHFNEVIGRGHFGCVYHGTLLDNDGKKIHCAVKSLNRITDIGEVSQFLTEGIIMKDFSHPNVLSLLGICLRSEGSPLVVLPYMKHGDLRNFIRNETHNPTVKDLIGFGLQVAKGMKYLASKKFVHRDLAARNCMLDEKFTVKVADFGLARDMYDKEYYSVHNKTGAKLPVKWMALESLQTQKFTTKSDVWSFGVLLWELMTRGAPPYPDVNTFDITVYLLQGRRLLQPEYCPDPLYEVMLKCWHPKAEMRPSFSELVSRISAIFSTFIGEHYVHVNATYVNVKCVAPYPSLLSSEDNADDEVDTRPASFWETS

In assay [1], `O=C(Nc1ccc(F)cc1)C1(C(=O)Nc2ccc(Oc3ncnc4c3NCc3ccccc3O4)cc2)CC1` showed an IC50 greater than 1000 nM.
Same read-out and setting: the value for `COc1cc2c(cc1OC)C(=O)Nc1c(ncnc1Oc1ccc(NC(=O)C3(C(=O)Nc4ccc(F)cc4)CC3)cc1)N2` was greater than 1000 nM.
On to `COc1cc2c(cc1OC)C(=O)Nc1c(Oc3ccc(NC(=O)C4(C(=O)Nc5ccc(F)cc5)CC4)cc3F)ccnc1N2`, for which the 50% inhibitory concentration (IC50) in assay [1] is greater than 1000 nM.
Take `COc1cc2c(cc1OC)Nc1ncnc(Oc3ccc(NC(=O)C4(C(=O)Nc5ccc(F)cc5)CC4)cc3F)c1N=C2`: the IC50 in assay [2] is 1340 nM; in assay [3] it was 864 nM; in assay [4], 1610 nM; in assay [5] it was 1660 nM.
Molecule `COc1cc2c(cc1OC)C(=O)Nc1c(ncnc1Oc1ccc(NC(=O)C3(C(=O)Nc4ccc(F)cc4)CC3)cc1F)N2` had an IC50 in assay [1] greater than 1000 nM.
For `COc1cc2c(cc1OC)Nc1ncnc(Oc3ccc(NC(=O)C4(C(=O)Nc5ccc(F)cc5)CC4)cc3)c1NC2`, the IC50 in assay [2] turned out to be 4910 nM; in assay [3] it was 1470 nM; in assay [4], 7120 nM; in assay [5], 5340 nM.
With `Cc1nc(Oc2ccc(NC(=O)C3(C(=O)Nc4ccc(F)cc4)CC3)cc2)c2c(n1)Oc1ccccc1CN2`, the IC50 in assay [1] was greater than 1000 nM.
Regarding `COc1cc2c(cc1OC)Nc1nccc(Oc3ccc(NC(=O)C4(C(=O)Nc5ccc(F)cc5)CC4)cc3)c1NC2`, in assay [1], the concentration for half-maximal inhibition (IC50) was greater than 1000 nM.
Same read-out and setting: the same measure for `O=C(Nc1ccc(F)cc1)C1(C(=O)Nc2ccc(Oc3ncnc4c3N=Cc3ccccc3O4)cc2)CC1`: greater than 1000 nM; for `Cc1nc(Oc2ccc(NC(=O)C3(C(=O)Nc4ccc(F)cc4)CC3)cc2)c2c(n1)Oc1ccccc1C=N2`: greater than 1000 nM.
